Experimental data from the supplement of paper PMC4862054.
“And” between values parts separate entries of the source, which are not always exact repeats. Equal entries are not always repeated.

Key:
Details in all cases: incubation time: 72 h
BT-474 [1] = test: normalised response (% of control), CellTiter-Glo; higher = more viable cells (100 = DMSO, 0 = benzethonium chloride kill control)
Method in brief: (§1)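 For each plate, 0.1 % DMSO was set to 100 and a positive kill control to 0. Breast cancer cell lines (20 µl suspension) were seeded into 384-well plates already holding compound at 5 concentrations in 10-fold steps over a 10,000-fold range chosen per compound, and incubated for 72 h. CellTox Green fluorescence at 485/520 nm was read before CellTiter-Glo luminescence, which followed 10 min at room temperature. Each value is the normalised signal at one concentration.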

BT-549 [2] = test: as above
Method in brief: as §1

CAL-120 [3] = test: as above
Method in brief: as §1

CAL-148 [4] = test: as above
Method in brief: as §1

CAL-51 [5] = test: as above
Method in brief: as §1

CAL-85-1 [6] = test: as above
Method in brief: as §1

DU-4475 [7] = test: as above
Method in brief: as §1

HCC1143 [8] = test: as above
Method in brief: as §1

HCC1599 [9] = test: as above
Method in brief: as §1

HCC1937 [10] = test: as above
Method in brief: as §1

HDQ-P1 [11] = test: as above
Method in brief: as §1

Hs578T [12] = test: as above
Method in brief: as §1

MCF-10A = test: as above
Method in brief: as §1

MDA-MB-231 [13] = test: as above
Method in brief: as §1

MDA-MB-436 [14] = test: as above
Method in brief: as §1

MDA-MB-453 [15] = test: as above
Method in brief: as §1

MDA-MB-468 [16] = test: as above
Method in brief: as §1

MFM-223 [17] = test: as above
Method in brief: as §1

SK-BR-3 [18] = test: as above
Method in brief: as §1

BT-474 [19] = test: normalised viability (% of control), CellTiter-Blue; higher = more viable cells (100 = DMSO, 0 = benzethonium chloride kill control)
Method in brief: (§2)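 Breast cancer cell lines were treated for 72 h in 384-well format and measured by CellTiter-Blue fluorescence at 560/590 nm. Results were normalised per plate to vehicle (100) and a positive kill control (0). The entry is normalised viability at a single listed concentration of the series.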

BT-549 [20] = test: as above
Method in brief: as §2

CAL-120 [21] = test: as above
Method in brief: as §2

CAL-148 [22] = test: as above
Method in brief: as §2

CAL-51 [23] = test: as above
Method in brief: as §2

CAL-85-1 [24] = test: as above
Method in brief: as §2

DU-4475 [25] = test: as above
Method in brief: as §2

HCC1143 [26] = test: as above
Method in brief: as §2

HCC1599 [27] = test: as above
Method in brief: as §2

HCC1937 [28] = test: as above
Method in brief: as §2

HDQ-P1 [29] = test: as above
Method in brief: as §2

Hs578T [30] = test: as above
Method in brief: as §2

MDA-MB-231 [31] = test: as above
Method in brief: as §2

MDA-MB-436 [32] = test: as above
Method in brief: as §2

MDA-MB-453 [33] = test: as above
Method in brief: as §2

MDA-MB-468 [34] = test: as above
Method in brief: as §2

MFM-223 [35] = test: as above
Method in brief: as §2

SK-BR-3 [36] = test: as above
Method in brief: as §2

SMILES	normalised response (BT-474 [1])	normalised response (BT-549 [2])	normalised response (CAL-120 [3])	normalised response (CAL-148 [4])	normalised response (CAL-51 [5])	normalised response (CAL-85-1 [6])	normalised response (DU-4475 [7])	normalised response (HCC1143 [8])	normalised response (HCC1599 [9])	normalised response (HCC1937 [10])	normalised response (HDQ-P1 [11])	normalised response (Hs578T [12])	normalised response (MCF-10A)	normalised response (MDA-MB-231 [13])	normalised response (MDA-MB-436 [14])	normalised response (MDA-MB-453 [15])	normalised response (MDA-MB-468 [16])	normalised response (MFM-223 [17])	normalised response (SK-BR-3 [18])	normalised viability (BT-474 [19])	normalised viability (BT-549 [20])	normalised viability (CAL-120 [21])	normalised viability (CAL-148 [22])	normalised viability (CAL-51 [23])	normalised viability (CAL-85-1 [24])	normalised viability (DU-4475 [25])	normalised viability (HCC1143 [26])	normalised viability (HCC1599 [27])	normalised viability (HCC1937 [28])	normalised viability (HDQ-P1 [29])	normalised viability (Hs578T [30])	normalised viability (MDA-MB-231 [31])	normalised viability (MDA-MB-436 [32])	normalised viability (MDA-MB-453 [33])	normalised viability (MDA-MB-468 [34])	normalised viability (MFM-223 [35])	normalised viability (SK-BR-3 [36])
CC1(C)CCC(c2ccc(Cl)cc2)=C(CN2CCN(c3ccc(C(=O)NS(=O)(=O)c4ccc(N[C@H](CCN5CCOCC5)CSc5ccccc5)c(S(=O)(=O)C(F)(F)F)c4)cc3)CC2)C1 [Navitoclax] (1 nM)	95.7%	102%	94%	90.3%	74.1%	91.8%	101%	88.7%	98.6%	98.2%	106%	97.6%	93.5%	99.2%	95.6%	94.4%	95.1%	93.8%	92.4%	88.9%	103%	73.8%	99.2%	109%	79.1%	88.6%	81.6%	90.9%	88.2%	67%	99.2%	84.6%	59.8%	83.4%	90.2%	69.9%	78.4%
Cc1cn(-c2cc(NC(=O)c3ccc(C)c(Nc4nccc(-c5cccnc5)n4)c3)cc(C(F)(F)F)c2)cn1 [Nilotinib] (1 nM)	93.5%	102%	98.5%	93.1%	98.1%	105%	105%	95.8%	112%	96.1%	96.9%	100%	95.4%	98.8%	95.7%	101%	106%	96%	103%	87.9% and 96%	107% and 98.7%	82.1% and 80.6%	91.4% and 96.9%	106% and 112%	82.6% and 95.6%	110% and 104%	87.8% and 80.8%	103% and 87.9%	95.5% and 94%	83.1% and 101%	97.8% and 107%	83.9% and 95.6%	111% and 89.4%	88.4% and 92.2%	96% and 99.2%	94% and 90.9%	93.3% and 92.6%
